Results taken from the NIST ThermoML archive (doi:10.1021/je4004977).

Settings: for viscosity / mass density: 101.33 kPa; for viscosity / mass density / vapor or sublimation pressure: Liquid; for viscosity: Capillary tube (Ostwald / Ubbelohde) method; for surface tension liquid-gas: Drop volume; for mass density: Pycnometric method; for vapor or sublimation pressure: Closed cell (Static) method

CC(O)COC(C)COC(C)COC(C)CO (stereo not drawn) [2-[2-[2-(2-hydroxypropoxy)propoxy]propoxy]-1-propanol]
Settings | mass density [kg/m3] | surface tension liquid-gas [mN/m] | vapor or sublimation pressure [kPa] | viscosity [mPa·s]
288.15 K | – | – | – | 105.44
293.15 K | – | – | – | 67.81
298.15 K | 1019.6 | 34.3 | – | –
299.15 K | – | – | – | 44.89
303.15 K | – | – | – | 35.66
308.15 K | 1013.7 | 33.4 | – | 27.85
313.15 K | – | – | – | 22.48
318.15 K | 1007.9 | 32.6 | – | 17.97
323.15 K | – | – | – | 14.32
328.15 K | 1001.3 | 31.8 | – | 11.58
333.15 K | – | – | – | 9.39
338.15 K | 995.4 | – | – | 7.65
344.15 K | – | – | – | 6.04
348.15 K | 988.8 | 30.2 | – | 5.22
353.15 K | 985.1 | – | – | 4.42
358.15 K | 982.5 | – | – | 3.84
363.15 K | 979 | – | – | 3.38
368.15 K | 975.5 | 28.5 | – | 3
373.15 K | – | – | – | 2.62
378.15 K | – | 27.7 | – | 2.28
383.15 K | 965.4 | – | – | 1.9
388.15 K | – | – | – | 1.48
393.15 K | 958.7 | – | – | 1.02
398.15 K | – | 26.1 | – | –
403.15 K | 951.4 | – | – | –
408.15 K | – | 25.2 | – | –
409.85 K | – | – | 0.01 | –
413.15 K | 944.3 | – | – | –
418.15 K | – | 24.4 | – | –
423.15 K | 937 | – | – | –
428.15 K | – | 23.6 | – | –
433.15 K | 928.9 | – | – | –
438.15 K | – | 22.7 | – | –
443.15 K | 919.4 | – | – | –
448.15 K | – | 21.9 | – | –
458.15 K | – | 21.1 | – | –
462.55 K | – | – | 2.68 | –
468.15 K | – | 20.2 | – | –
480.15 K | – | – | 5.34 | –
486.15 K | – | – | 6.66 | –
492.15 K | – | – | 8.02 | –
500.15 K | – | – | 10.72 | –
507.15 K | – | – | 13.36 | –
513.15 K | – | – | 16.05 | –
518.15 K | – | – | 18.79 | –
522.15 K | – | – | 21.34 | –
527.15 K | – | – | 24.02 | –
530.15 K | – | – | 26.71 | –
537.15 K | – | – | 32.05 | –
543.15 K | – | – | 37.42 | –
545.15 K | – | – | 40.02 | –
550.15 K | – | – | 45.37 | –
554.15 K | – | – | 50.69 | –
556.15 K | – | – | 53.36 | –
560.15 K | – | – | 58.74 | –
564.15 K | – | – | 64.02 | –
567.15 K | – | – | 69.28 | –
570.15 K | – | – | 74.63 | –
575.15 K | – | – | 83.34 | –
582.15 K | – | – | 101.02 | –
